Key:
Assay in all cases: relative viability (nuclei count vs DMSO), 5 days (fraction); higher = more cells survive
Sulindac + Pemetrexed = compound: CC1=C(CC(=O)O)c2cc(F)ccc2/C1=C\c1ccc([S+](C)[O-])cc1 [Sulindac] + Nc1nc2[nH]cc(CCc3ccc(C(=O)N[C@@H](CCC(=O)O)C(=O)O)cc3)c2c(=O)[nH]1 [Pemetrexed] (partner 0.2 µM)
Method in brief: (§1)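 Values are medians from duplicate plates. Each reflects relative viability, defined as the nuclei count of treated wells over that of vehicle wells. Lung cancer cell lines in 1536-well plates were pin-tool dosed one day after seeding with one drug alone or with a fixed anchor-drug dose plus five library-drug doses (not always all listed) in √10 steps, then fixed, stained and imaged at 4× after 5 days.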

[1] = compound: CN[C@@H]1C[C@H]2O[C@@](C)([C@@H]1OC)n1c3ccccc3c3c4c(c5c6ccccc6n2c5c31)C(=O)NC4 [Staurosporine] + COc1cc2c(Oc3ccc(NC(=O)C4(C(=O)Nc5ccc(F)cc5)CC4)cc3F)ccnc2cc1OCCCN1CCOCC1 [Foretinib] (partner 0.25 µM)
Method in brief: as §1

[2] = compound: CN[C@@H]1C[C@H]2O[C@@](C)([C@@H]1OC)n1c3ccccc3c3c4c(c5c6ccccc6n2c5c31)C(=O)NC4 [Staurosporine] + CS(=O)(=O)N1CCN(Cc2cc3nc(-c4cccc5[nH]ncc45)nc(N4CCOCC4)c3s2)CC1 [Pictilisib] (partner 1 µM)
Method in brief: as §1

[3] = compound: O=c1[nH]cc(F)c(=O)[nH]1 [5-Fluorouracil] + Cc1nc(NC(=O)N2CCC[C@H]2C(N)=O)sc1-c1ccnc(C(C)(C)C(F)(F)F)c1 [Alpelisib] (partner 2 µM)
Method in brief: as §1

ChaGo-K-1
relative viability (Sulindac + Pemetrexed; first compound 0.08 µM): 0.269 | relative viability (Sulindac + Pemetrexed; first compound 0.253 µM): 0.247 | relative viability (Sulindac + Pemetrexed; first compound 0.8 µM): 0.302 | relative viability (Sulindac + Pemetrexed; first compound 2.53 µM): 0.262 | relative viability (Sulindac + Pemetrexed; first compound 8 µM): 0.275 | relative viability ([1]; first compound 0.005 µM): 0.881 | relative viability ([1]; first compound 0.01581 µM): 0.528 | relative viability ([1]; first compound 0.05 µM): 0.676 | relative viability ([1]; first compound 0.1581 µM): 0.223 | relative viability ([1]; first compound 0.5 µM): 0.188 | relative viability ([2]; first compound 0.005 µM): 0.692 | relative viability ([2]; first compound 0.05 µM): 0.52 | relative viability ([2]; first compound 0.1581 µM): 0.244

EBC-1
relative viability ([1]; first compound 0.005 µM): 0.107 | relative viability ([1]; first compound 0.01581 µM): 0.102 | relative viability ([1]; first compound 0.05 µM): 0.103 | relative viability ([1]; first compound 0.1581 µM): 0.0621 | relative viability ([1]; first compound 0.5 µM): 0.0633 | relative viability ([2]; first compound 0.005 µM): 0.167 | relative viability ([2]; first compound 0.01581 µM): 0.112 | relative viability ([2]; first compound 0.05 µM): 0.126 | relative viability ([2]; first compound 0.1581 µM): 0.154 | relative viability ([2]; first compound 0.5 µM): 0.139 | relative viability ([3]; first compound 0.02 µM): 0.865 | relative viability ([3]; first compound 0.2 µM): 0.841 | relative viability ([3]; first compound 0.6325 µM): 0.792 | relative viability ([3]; first compound 2 µM): 0.612

EKVX
relative viability (Sulindac + Pemetrexed; first compound 0.08 µM): 0.471 | relative viability (Sulindac + Pemetrexed; first compound 0.253 µM): 0.421 | relative viability (Sulindac + Pemetrexed; first compound 0.8 µM): 0.323 | relative viability (Sulindac + Pemetrexed; first compound 2.53 µM): 0.423 | relative viability (Sulindac + Pemetrexed; first compound 8 µM): 0.433 | relative viability ([1]; first compound 0.005 µM): 0.355 | relative viability ([1]; first compound 0.01581 µM): 0.133 | relative viability ([1]; first compound 0.05 µM): 0.379 | relative viability ([1]; first compound 0.1581 µM): 0.246 | relative viability ([1]; first compound 0.5 µM): 0.123 | relative viability ([2]; first compound 0.005 µM): 0.403 | relative viability ([2]; first compound 0.01581 µM): 0.218 | relative viability ([2]; first compound 0.05 µM): 0.184 | relative viability ([2]; first compound 0.1581 µM): 0.163 | relative viability ([2]; first compound 0.5 µM): 0.121 | relative viability ([3]; first compound 0.02 µM): 0.7 | relative viability ([3]; first compound 0.6325 µM): 0.153 | relative viability ([3]; first compound 2 µM): 0.147

EMC-BAC-2
relative viability (Sulindac + Pemetrexed; first compound 0.08 µM): 0.429 | relative viability (Sulindac + Pemetrexed; first compound 0.253 µM): 0.441 | relative viability (Sulindac + Pemetrexed; first compound 0.8 µM): 0.408 | relative viability (Sulindac + Pemetrexed; first compound 2.53 µM): 0.451 | relative viability (Sulindac + Pemetrexed; first compound 8 µM): 0.466 | relative viability ([1]; first compound 0.005 µM): 0.397 | relative viability ([1]; first compound 0.01581 µM): 0.344 | relative viability ([1]; first compound 0.05 µM): 0.252 | relative viability ([1]; first compound 0.1581 µM): 0.23 | relative viability ([1]; first compound 0.5 µM): 0.106 | relative viability ([2]; first compound 0.005 µM): 0.29 | relative viability ([2]; first compound 0.01581 µM): 0.129 | relative viability ([2]; first compound 0.05 µM): 0.141 | relative viability ([2]; first compound 0.1581 µM): 0.195 | relative viability ([2]; first compound 0.5 µM): 0.176 | relative viability ([3]; first compound 0.02 µM): 0.733 | relative viability ([3]; first compound 0.2 µM): 0.773 | relative viability ([3]; first compound 0.6325 µM): 0.801 | relative viability ([3]; first compound 2 µM): 0.768

EPLC-272H
relative viability (Sulindac + Pemetrexed; first compound 0.08 µM): 0.274 | relative viability (Sulindac + Pemetrexed; first compound 0.253 µM): 0.326 | relative viability (Sulindac + Pemetrexed; first compound 0.8 µM): 0.465 | relative viability (Sulindac + Pemetrexed; first compound 2.53 µM): 0.278 | relative viability (Sulindac + Pemetrexed; first compound 8 µM): 0.347 | relative viability ([1]; first compound 0.005 µM): 0.608 | relative viability ([1]; first compound 0.01581 µM): 0.136 | relative viability ([1]; first compound 0.05 µM): 0.174 | relative viability ([1]; first compound 0.1581 µM): 0.0912 | relative viability ([1]; first compound 0.5 µM): 0.121 | relative viability ([2]; first compound 0.005 µM): 0.333 | relative viability ([2]; first compound 0.01581 µM): 0.141 | relative viability ([2]; first compound 0.05 µM): 0.176 | relative viability ([2]; first compound 0.1581 µM): 0.1 | relative viability ([2]; first compound 0.5 µM): 0.0694 | relative viability ([3]; first compound 0.02 µM): 0.91 | relative viability ([3]; first compound 0.2 µM): 0.834 | relative viability ([3]; first compound 0.6325 µM): 0.429 | relative viability ([3]; first compound 2 µM): 0.371

H3255
relative viability (Sulindac + Pemetrexed; first compound 0.08 µM): 0.592 | relative viability (Sulindac + Pemetrexed; first compound 0.253 µM): 0.573 | relative viability (Sulindac + Pemetrexed; first compound 0.8 µM): 0.549 | relative viability (Sulindac + Pemetrexed; first compound 2.53 µM): 0.567 | relative viability (Sulindac + Pemetrexed; first compound 8 µM): 0.568 | relative viability ([1]; first compound 0.005 µM): 0.884 | relative viability ([1]; first compound 0.01581 µM): 0.357 | relative viability ([1]; first compound 0.05 µM): 0.292 | relative viability ([1]; first compound 0.1581 µM): 0.211 | relative viability ([1]; first compound 0.5 µM): 0.183 | relative viability ([2]; first compound 0.005 µM): 0.325 | relative viability ([2]; first compound 0.01581 µM): 0.238 | relative viability ([2]; first compound 0.05 µM): 0.145 | relative viability ([2]; first compound 0.1581 µM): 0.135 | relative viability ([2]; first compound 0.5 µM): 0.0752 | relative viability ([3]; first compound 0.02 µM): 0.721 | relative viability ([3]; first compound 0.2 µM): 0.816 | relative viability ([3]; first compound 0.6325 µM): 0.833 | relative viability ([3]; first compound 2 µM): 0.496

HARA
relative viability (Sulindac + Pemetrexed; first compound 0.08 µM): 0.237 | relative viability (Sulindac + Pemetrexed; first compound 0.253 µM): 0.257 | relative viability (Sulindac + Pemetrexed; first compound 0.8 µM): 0.242 | relative viability (Sulindac + Pemetrexed; first compound 2.53 µM): 0.239 | relative viability (Sulindac + Pemetrexed; first compound 8 µM): 0.288 | relative viability ([1]; first compound 0.005 µM): 0.77 | relative viability ([1]; first compound 0.05 µM): 0.327 | relative viability ([1]; first compound 0.1581 µM): 0.184 | relative viability ([1]; first compound 0.5 µM): 0.258 | relative viability ([2]; first compound 0.005 µM): 0.193 | relative viability ([2]; first compound 0.01581 µM): 0.23 | relative viability ([2]; first compound 0.05 µM): 0.0859 | relative viability ([2]; first compound 0.1581 µM): 0.0523 | relative viability ([2]; first compound 0.5 µM): 0.062 | relative viability ([3]; first compound 0.02 µM): 0.902 | relative viability ([3]; first compound 0.2 µM): 0.925 | relative viability ([3]; first compound 0.6325 µM): 0.809 | relative viability ([3]; first compound 2 µM): 0.748

HCC-15
relative viability (Sulindac + Pemetrexed; first compound 0.08 µM): 0.213 | relative viability (Sulindac + Pemetrexed; first compound 0.253 µM): 0.223 | relative viability (Sulindac + Pemetrexed; first compound 0.8 µM): 0.209 | relative viability (Sulindac + Pemetrexed; first compound 2.53 µM): 0.22 | relative viability (Sulindac + Pemetrexed; first compound 8 µM): 0.235 | relative viability ([1]; first compound 0.005 µM): 0.975 | relative viability ([1]; first compound 0.05 µM): 0.483 | relative viability ([1]; first compound 0.1581 µM): 0.13 | relative viability ([1]; first compound 0.5 µM): 0.107 | relative viability ([2]; first compound 0.005 µM): 0.718 | relative viability ([2]; first compound 0.05 µM): 0.566 | relative viability ([2]; first compound 0.1581 µM): 0.216 | relative viability ([2]; first compound 0.5 µM): 0.113 | relative viability ([3]; first compound 0.02 µM): 0.921 | relative viability ([3]; first compound 0.2 µM): 0.836 | relative viability ([3]; first compound 0.6325 µM): 0.494 | relative viability ([3]; first compound 2 µM): 0.29

HCC-44
relative viability (Sulindac + Pemetrexed; first compound 0.08 µM): 0.663 | relative viability (Sulindac + Pemetrexed; first compound 0.253 µM): 0.695 | relative viability (Sulindac + Pemetrexed; first compound 0.8 µM): 0.667 | relative viability (Sulindac + Pemetrexed; first compound 2.53 µM): 0.632 | relative viability (Sulindac + Pemetrexed; first compound 8 µM): 0.646 | relative viability ([2]; first compound 0.005 µM): 0.147 | relative viability ([2]; first compound 0.01581 µM): 0.152 | relative viability ([2]; first compound 0.05 µM): 0.13 | relative viability ([2]; first compound 0.1581 µM): 0.133 | relative viability ([2]; first compound 0.5 µM): 0.131 | relative viability ([3]; first compound 0.02 µM): 0.824 | relative viability ([3]; first compound 0.2 µM): 0.722 | relative viability ([3]; first compound 0.6325 µM): 0.4 | relative viability ([3]; first compound 2 µM): 0.267

Reference: the supplement of paper PMC10307832
